Like-named read-outs stand apart in the source and are kept apart here.
Columns and labels:
[1] = molecular target: 5HT1A receptor (Rattus norvegicus (Rat), UniProt P19327); experiment: 5HT1A receptor binding assay (3H-8-OH-DPAT, rat brain mantle membrane); details: for inhibition at 10 µM: test compound final concentration 10^-5 M; for IC50: values marked a = IC50
Method: Incubation at 37° C. was conducted for 10 min, the weight of the tubes were adjusted using a balance after incubation. […] Centrifugation was conducted and repeated 3 times.

[2] = molecular target: 5HT2A receptor (Rattus norvegicus (Rat), UniProt P14842); experiment: 5HT2A receptor assay ([3H]-Ketanserin, rat brain mantle membrane); format: binding; details: for inhibition at 10 µM: read-out: 5HT2A Inhibition %; for IC50: values marked a = IC50
5HT2A receptor, sequence (P14842 whole entry): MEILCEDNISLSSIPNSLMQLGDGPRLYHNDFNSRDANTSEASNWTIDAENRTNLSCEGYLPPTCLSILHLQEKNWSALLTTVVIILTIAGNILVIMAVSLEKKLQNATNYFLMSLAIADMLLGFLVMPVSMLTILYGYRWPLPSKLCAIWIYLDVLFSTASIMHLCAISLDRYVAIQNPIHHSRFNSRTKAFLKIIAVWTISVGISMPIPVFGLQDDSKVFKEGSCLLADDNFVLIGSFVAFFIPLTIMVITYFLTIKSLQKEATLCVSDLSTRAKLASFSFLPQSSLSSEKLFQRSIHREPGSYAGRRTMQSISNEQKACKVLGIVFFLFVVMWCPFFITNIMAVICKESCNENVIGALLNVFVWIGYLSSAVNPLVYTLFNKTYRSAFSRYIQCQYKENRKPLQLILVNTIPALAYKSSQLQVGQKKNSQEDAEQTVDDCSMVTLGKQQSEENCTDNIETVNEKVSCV

[3] = molecular target: D2 receptor (Rattus norvegicus (Rat), UniProt P61169); experiment: D2 receptor binding assay (3H-Spiperone, rat brain striatum membrane); details: read-out: D2 Inhibition %
D2 receptor, sequence (P61169 whole entry): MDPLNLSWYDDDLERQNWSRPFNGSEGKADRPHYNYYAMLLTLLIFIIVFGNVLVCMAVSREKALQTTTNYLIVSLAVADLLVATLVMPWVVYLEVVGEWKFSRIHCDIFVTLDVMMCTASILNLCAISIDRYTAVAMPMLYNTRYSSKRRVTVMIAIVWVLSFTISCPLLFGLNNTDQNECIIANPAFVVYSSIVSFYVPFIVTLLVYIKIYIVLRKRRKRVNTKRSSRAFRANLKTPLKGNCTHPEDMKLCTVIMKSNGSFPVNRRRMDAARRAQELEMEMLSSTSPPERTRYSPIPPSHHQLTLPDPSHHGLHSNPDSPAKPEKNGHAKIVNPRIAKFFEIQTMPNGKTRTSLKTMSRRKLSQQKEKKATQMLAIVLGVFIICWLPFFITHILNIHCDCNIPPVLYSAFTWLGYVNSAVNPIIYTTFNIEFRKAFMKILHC
Method: Brain striatum was rapidly taken, and 2 brain striatums were combined into a centrifuge tube, to which 3 ml of buffer (0.05 M Tris-HCl buffer, containing NaCl 120 mM, KCl 5 mM, MgCl2 1 mM, CaCl2 1 mM) was added, homogenization was conducted for 3-4 s at level 4 for four times, and then 5 ml of buffer was then added. The weight of the homogenized tubes were adjusted using a balance, and centrifugation was conducted at 12000 r, 4° C. for 20 min. The supernatant was discarded, and 3 ml of buffer was added (0.05 M Tris-HCl buffer, containing NaCl 120 mM, KCl 5 mM, MgCl2 1 mM, CaCl2 1 mM). Vortex mixer was used for blending, and then 5 ml of buffer was added (0.05 M Tris-HCl buffer, containing NaCl 120 mM, KCl 5 mM, MgCl2 1 mM, CaCl2 1 mM). Centrifugation was conducted and repeated 3 times. After the centrifugations, the supernatant was discarded, and the pellets were stored at −80° C. for future use.
Beckman LS-6500 Multi-function Liquid Scintillation Counter was used.
(1) The prepared membrane was first applied with appropriate amount of buffer (0.05 M Tris-HCl buffer, containing NaCl 120 mM, KCl 5 mM, MgCl2 1 mM, CaCl2 1 mM), and homogenizer was used for evenly dispersing. 15 tubes were mixed into a 100 ml container, and appropriate amount of homogenized liquid was added to give 50 ml of membrane suspension, which was reserved for future use.
(2) 100 μL of membrane preparation and 100 μL of buffer (0.05 M Tris-HCl buffer, containing NaCl 120 mM, KCl 5 mM, MgCl2 1 mM, CaCl2 1 mM) were added into each reaction tube.
(3) 100 μL of homogenized liquid was added into the total binding tube (TB), 100 μL of Butaclamol (final concentration 10^−5 M) was added into the non-specific binding tube (NB), and 100 μL of the test compound (final concentration 10^−5 M) was added into the specific binding tube (SB) for each compound.
(5) Each of the reaction tubes was incubated at 37° C. for 20 min. After the reaction was completed, the bound ligands were rapidly filtered under reduced pressure, and the ice-chilled assay buffer was used for adequate washing. The filter was taken out and put into a 3 ml scintillation vial, and 2 ml of toluene scintillation solution was added and blended.
(6) The scintillation vials were put into Liquid Scintillation Counter for counting. Inhibitory rate(1%)=[(Total binding tube cpm−compound cpm)/(Total binding tube cpm−non-specific binding tube cpm)]×100%
Each assay for the compounds was conducted in duplicate.

[4] = in vivo; details: both sexes, mouse, in vivo, po
Method: (§1) KM mice (half male and half female) were randomly divided into several groups (with 2-5 mice in each group), which were respectively the 2000 mg/kg groups for each compound, and the solvent group. 0.2 ml/10 g were administered intragastrically. The death of the animals in 3 days were observed. (In the case 3 or more animals survived in 3 days without notable abnormity in their life states, the observation was continued until the assay was completed in 7 days. In the case 3 or more animals died in 3 days, the median lethal dose method was used to determine the LD50).
(§2) KM mice (half male and half female) were randomly divided into several groups (with 4 mice in each group), which were respectively the 1500 mg/kg, 1000 mg/kg, 500 mg/kg groups for each compound, and the solvent group. 0.2 ml/10 g were administered intragastrically, and the death of the animals in 1-3 days were observed.

[5] = molecular target: D3 receptor (Homo sapiens (Human), UniProt P35462); experiment: D3 receptor binding assay ([3H]-Spiperone, HEK-293 cells); details: test compound final concentration 10 μmol/L
D3 receptor, sequence (P35462 whole entry): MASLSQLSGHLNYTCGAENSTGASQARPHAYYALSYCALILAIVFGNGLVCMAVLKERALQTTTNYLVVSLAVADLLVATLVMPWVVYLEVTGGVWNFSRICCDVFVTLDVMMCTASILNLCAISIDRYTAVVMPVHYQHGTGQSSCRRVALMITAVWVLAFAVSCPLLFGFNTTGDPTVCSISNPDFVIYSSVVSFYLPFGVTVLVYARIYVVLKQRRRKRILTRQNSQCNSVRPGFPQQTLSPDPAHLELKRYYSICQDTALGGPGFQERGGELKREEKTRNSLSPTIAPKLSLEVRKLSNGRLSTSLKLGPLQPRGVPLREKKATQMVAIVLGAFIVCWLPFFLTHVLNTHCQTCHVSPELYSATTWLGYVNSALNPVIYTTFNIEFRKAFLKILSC
Method: After the cells were centrifuged at 1000 rpm for 5 min, the supernatant was discarded, and the cell pellet was collected and stored in a −20° C. fridge for reservation. It was re-suspended with Tris-Cl (pH 7.4) in the assay.
Tris was divided into aliquots by Genetimes Technology Inc.
Competitive binding test for receptors: 20 μl of each of the test compounds and 20 μl of the radioactive ligand together with 160 μl of the receptor proteins were added into the reaction tubes, and the final concentrations of the test compound and the positive drug were all 10 μmol/L. After 50 min of incubation in 30° C. water bath, the tubes were immediately moved to ice bath to terminate the reactions. GF/C glass fiber filter papers were used for rapid sucking filtration on a Millipore cell sample collector, elution buffer (50 mM Tris-HCl, PH 7.4) was applied for 3 ml×3 times, and microwave was applied for 4-5 min for drying. The filter papers were moved into 0.5 ml centrifuge tubes, and 500 μl of lipid-soluble scintillation solution was added. The tubes were allowed to stand still for over 30 min in dark, and the intensities of radioactivity were measured by a counter.

[6] = molecular target: 5HT2C (Rattus norvegicus (Rat), UniProt P08909); experiment: 5HT2C receptor binding assay ([3H]-mesulergine, rat brain mantle membrane); details: test compound final concentration 10^-5 M
5HT2C, sequence (P08909 33-460 limits assumed): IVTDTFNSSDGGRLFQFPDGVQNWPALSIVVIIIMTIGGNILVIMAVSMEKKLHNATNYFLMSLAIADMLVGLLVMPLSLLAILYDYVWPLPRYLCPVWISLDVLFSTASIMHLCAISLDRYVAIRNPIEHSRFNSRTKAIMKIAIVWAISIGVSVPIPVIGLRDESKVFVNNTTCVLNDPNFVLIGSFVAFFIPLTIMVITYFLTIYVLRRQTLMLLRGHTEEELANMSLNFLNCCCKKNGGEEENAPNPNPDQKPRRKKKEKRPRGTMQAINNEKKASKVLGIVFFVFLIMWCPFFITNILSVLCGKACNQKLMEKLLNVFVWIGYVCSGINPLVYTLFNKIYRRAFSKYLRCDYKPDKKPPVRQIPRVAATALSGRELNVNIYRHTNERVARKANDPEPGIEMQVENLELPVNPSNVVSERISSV
Method: Incubation at 37° C. was conducted for 10 min, the weight of the tubes were adjusted using a balance after the incubation. […] Centrifugation was conducted (repeated 3 times).

[7] = system: MK-801 high activity mice; experiment: MK-801 induced high activity in mice; format: in vivo; details: for Total moving distance: MK-801 high activity mice, within 90 min; for ED50: Mus musculus, po, read-out: MK-801 induced high activity ED50; for improvement of MK-801 induced high activity (in words): compared to the model group
Method: Ascorbic acid was provided by Sinopharm Chemical Reagent Co. Ltd.
MK-801 was produced by Sigma Company, USA; the formulation method: 0.1% vitamin C was used to formulate a 1 mg/ml solution.
Tween 80, with the concentration of 10%.
Mice with qualified body weight were selected, and randomly divided into blank group, model group, positive control group (risperidone group) and drug group. […] 1 H after the administration, 0.1% of ascorbic acid was intraperitoneally injected to the blank group at 0.1 ml/10 g; and the model group, the positive control group (30 min) and the drug group were intraperitoneally injected the MK-801 solution at 0.1 mg/kg. Subsequently, the spontaneous activities of the mice of each group in 90 min were measured.

[8] = Catalepsy assay in mice; format: in vivo; details: both sexes, Kunming (KM), mouse, in vivo; po, mice
Method: (§3) The durations for the mice to maintain the posture with the two forepaws on the bars were recorded, and 30 s of spasticity without moving was considered as the positive response. In the case the forepaws of the mice were not put down persistently, the observation was terminated at 60 s. The numbers of animals with positive response in each of the compound dosage groups were counted.

[9] = system: KM mice (catalepsy); experiment: Catalepsy assay in mice; format: in vivo; details: for catalepsy/MK-801 / catalepsy/apomorphine: ratio of ED50 values
Method: as §3

[10] = system: apomorphine induced clambering of mice; experiment: Apomorphine induced clambering assay of mice; details: for ED50: Mus musculus, po, read-out: apomorphine induced clambering ED50; for improvement of apomorphine induced clambering symptoms (in words): compared to the model group
Method: Apomorphine provided by Sigma Company was dissolved in 0.9% NaCl (containing 0.1% vitamin C) before use, and was freshly formulated before use.
Instruments: self-made clambering cage, chronograph.
After 5 min of adaptation, the behaviors of the mice at 10-11, 20-21, 30-31 min after the injection of apomorphine were observed.

[11] = system: KM mice; experiment: in vivo; details: po, single intragastric administration in mice
Method: as §1, §2

[12] = system: four receptors (D2, D3, 5-HT1A and 5-HT2A); experiment: In vitro receptor binding assays, summary over four receptors; details: in vitro assay
[13] = single intragastric administration in mice, read-out: LD50

5HT1A receptor, sequence (P19327 whole entry): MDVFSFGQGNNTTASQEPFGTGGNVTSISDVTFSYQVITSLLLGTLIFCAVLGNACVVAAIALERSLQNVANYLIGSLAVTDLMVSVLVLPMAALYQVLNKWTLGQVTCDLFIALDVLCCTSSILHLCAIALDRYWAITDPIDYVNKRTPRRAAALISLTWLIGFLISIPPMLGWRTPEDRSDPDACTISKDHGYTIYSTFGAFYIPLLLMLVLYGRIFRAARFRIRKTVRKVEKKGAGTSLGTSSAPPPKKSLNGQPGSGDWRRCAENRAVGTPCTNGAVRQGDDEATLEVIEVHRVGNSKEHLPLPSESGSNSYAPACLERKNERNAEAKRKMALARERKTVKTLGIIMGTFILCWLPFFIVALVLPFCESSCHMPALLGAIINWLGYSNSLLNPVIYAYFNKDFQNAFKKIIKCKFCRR

## FC(F)(F)c1ccc(-c2nnc(SCCCN3CCN(c4nsc5ccccc45)CC3)o2)cc1 [Compound 7, 2-((3-(4-(3-benzisothiazole)-1-piperazinyl)propylthio)-5-(4-trifluoromethyl)phenyl)-1,3,4-oxadiazole]
[1]
  inhibition at 10 µM: 113%
[2]
  inhibition at 10 µM: 98.8%
[3]
  inhibition at 10 µM: 80.6%

## O=C1Cc2cc(CCN3CCN(c4nsc5ccccc45)CC3)c(Cl)cc2N1 [ziprasidone]
[4]; [13]
  LD50: 2000 mg/kg

## O=C1CCc2ccc(OCCCCN3CCN(c4cccc(Cl)c4Cl)CC3)cc2N1 [aripiprazole]
[4]; KM
  LD50: 1400 mg/kg

## Fc1ccc2c(C3CCN(CCCSc4nnc(-c5ccc(C(F)(F)F)cc5)o4)CC3)noc2c1 [Compound 8, 2-((3-(4-(3-(6-fluoro-benzisoxazole))-1-piperidyl)propylthio)-5-(4-trifluoromethyl)phenyl)-1,3,4-oxadiazole]
[1]
  inhibition at 10 µM: 20.8%
[2]
  inhibition at 10 µM: 101%
[3]
  inhibition at 10 µM: 105%

## COc1ccc(-c2nnc(SCCCN3CCN(c4nsc5ccccc45)CC3)o2)cc1 [Compound 3]
[1]
  IC50: 0.00882 µM
[2]
  IC50: 0.00227 µM
[5]
  inhibition at 10 µM: 99.5%
[6]
  inhibition at 10 µM: 98.5%
[3]
  inhibition at 10 µM: 108%

## Fc1ccc(-c2nnc(SCCCN3CCN(c4nsc5ccccc45)CC3)o2)cc1 [Compound 9, 2-((3-(4-(3-benzisothiazole)-1-piperazinyl)propylthio)-5-(4-fluoro)phenyl)-1,3,4-oxadiazole]
[1]
  inhibition at 10 µM: 107%
[2]
  inhibition at 10 µM: 103%
[3]
  inhibition at 10 µM: 84.8%

## Fc1ccc(-c2nnc(SCCCN3CCC(c4noc5cc(F)ccc45)CC3)o2)cc1 [Compound 10, 2-((3-(4-(3-(6-fluoro-benzisoxazole))-1-piperidyl)propylthio)-5-(4-fluoro)phenyl)-1,3,4-oxadiazole]
[1]
  inhibition at 10 µM: 56.4%
[2]
  inhibition at 10 µM: 117%
[3]
  inhibition at 10 µM: 88.6%

## c1ccc(-c2nnc(SCCCN3CCN(c4nsc5ccccc45)CC3)o2)cc1 [Compound 1]
[1]
  inhibition at 10 µM: 17.9%
[2]
  inhibition at 10 µM: 87.1%
[3]
  inhibition at 10 µM: 62.4%

## Clc1ccc(-c2nnc(SCCCN3CCN(c4nsc5ccccc45)CC3)o2)cc1 [Compound 5]
[1]
  IC50: 0.0269 µM
[2]
  IC50: 0.0625 µM
[5]
  inhibition at 10 µM: 98.7%
[6]
  inhibition at 10 µM: 56.5%
[3]
  inhibition at 10 µM: 92.7%

## Fc1ccc2c(C3CCN(CCCSc4nnc(-c5ccc(Cl)cc5)o4)CC3)noc2c1 [Compound 6]
[1]
  IC50: 0.0199 µM
[2]
  IC50: 0.0151 µM
[5]
  inhibition at 10 µM: 101%
[6]
  inhibition at 10 µM: 68.1%
[7]; 3 mg/kg intragastric
  Total moving distance: 20912.66 ± 9887.01 cm
[7]; 5 mg/kg intragastric
  Total moving distance: 15745.74 ± 5475.41 cm
[7]; 10 mg/kg intragastric
  Total moving distance: 12997.51 ± 7859.06 cm
[7]; 20 mg/kg intragastric
  Total moving distance: 6741.35 ± 2251.52 cm
[7]; 30 mg/kg intragastric
  Total moving distance: 8454.72 ± 7864.50 cm
[7]; mice
  ED50: 3.31 mg/kg
[7]
  improvement of MK-801 induced high activity (in words): significantly improve
[8]
  ED50: 92.7 mg/kg
[9]
  EPS at effective dosage (in words): did not cause EPS
  catalepsy/MK-801: 28.02
  catalepsy/apomorphine: 22.62
[4]; [13]
  LD50: > 2000 mg/kg
[10]
  ED50: 4.1 mg/kg
  improvement of apomorphine induced clambering symptoms (in words): effectively improve
[3]
  inhibition at 10 µM: 104%

## Fc1ccc2c(C3CCN(CCCSc4nnc(-c5ccncc5)o4)CC3)noc2c1 [Compound 16]
[1]
  inhibition at 10 µM: 86.7%
[2]
  inhibition at 10 µM: 107%
[3]
  inhibition at 10 µM: 45.9%

## Fc1ccc2c(C3CCN(CCCSc4nnc(-c5ccccc5)o4)CC3)noc2c1 [Compound 2]
[1]
  inhibition at 10 µM: 6.1%
[2]
  inhibition at 10 µM: 11%
[3]
  inhibition at 10 µM: 77.5%

## c1ccc2c(N3CCN(CCCSc4nnc(-c5ccncc5)o4)CC3)nsc2c1 [Compound 15]
[1]
  inhibition at 10 µM: 114%
[2]
  inhibition at 10 µM: 95.1%
[3]
  inhibition at 10 µM: 88.1%

## c1csc(-c2nnc(SCCCN3CCN(c4nsc5ccccc45)CC3)o2)c1 [Compound 13]
[1]
  inhibition at 10 µM: 95.9%
[2]
  inhibition at 10 µM: 101%
[3]
  inhibition at 10 µM: 47.8%

## COc1ccc(-c2nnc(SCCCN3CCC(c4noc5cc(F)ccc45)CC3)o2)cc1 [Compound 4]
[1]
  IC50: 0.0127 µM
[2]
  IC50: 0.00051 µM
[5]
  inhibition at 10 µM: 101%
[6]
  inhibition at 10 µM: 82.1%
[7]; 3 mg/kg intragastric
  Total moving distance: 24988.83 ± 7617.21 cm
[7]; 5 mg/kg intragastric
  Total moving distance: 22872.82 ± 10538.51 cm
[7]; 10 mg/kg intragastric
  Total moving distance: 13574.51 ± 5340.38 cm
[7]; 30 mg/kg intragastric
  Total moving distance: 7773.56 ± 3681.67 cm
[7]; 100 mg/kg intragastric
  Total moving distance: 6954.61 ± 4931.26 cm
[7]; mice
  ED50: 15.4 mg/kg
[7]
  improvement of MK-801 induced high activity (in words): significantly improve
[8]
  ED50: 640 mg/kg
[9]
  EPS at effective dosage (in words): did not cause EPS
  catalepsy/MK-801: 41.56
  catalepsy/apomorphine: 395.30
[4]; [13]
  LD50: > 2000 mg/kg
[10]
  ED50: 1.62 mg/kg
  improvement of apomorphine induced clambering symptoms (in words): effectively improve
[3]
  inhibition at 10 µM: 113%

## Cc1nc2n(c(=O)c1CCN1CCC(c3noc4cc(F)ccc34)CC1)CCCC2 [risperidone, reference compound]
[7]
  ED50: 0.01 mg/kg
  improvement of MK-801 induced high activity (in words): significantly improve
[4]; [13]
  LD50: 82.1 mg/kg
[11]
  LD50: 82.1 mg/kg
[10]
  ED50: 0.02 mg/kg
  improvement of apomorphine induced clambering symptoms (in words): effectively improve

## c1ccc2c(-c3nnc(SCCCN4CCN(c5nsc6ccccc56)CC4)o3)cccc2c1 [Compound 11]
[1]
  inhibition at 10 µM: 45.8%
[2]
  inhibition at 10 µM: 91%
[12]
  affinities to D2, D3, 5-HT1A and 5-HT2A receptors (in words): relatively stronger affinities
  affinity compared to aripiprazole (in words): equivalent to aripiprazole
[3]
  inhibition at 10 µM: 25.7%

## Fc1ccc2c(C3CCN(CCCSc4nnc(-c5cccc6ccccc56)o4)CC3)noc2c1 [Compound 12]
[1]
  IC50: 0.175 µM
[2]
  IC50: 0.122 µM
[5]
  inhibition at 10 µM: 100%
[6]
  inhibition at 10 µM: 60.6%
[7]; 10 mg/kg intragastric
  Total moving distance: 20521.27 ± 7898.02 cm
[7]; 20 mg/kg intragastric
  Total moving distance: 12936.50 ± 3627.24 cm
[7]; 30 mg/kg intragastric
  Total moving distance: 16163.49 ± 7769.48 cm
[7]; 50 mg/kg intragastric
  Total moving distance: 10298.82 ± 4269.95 cm
[7]; 100 mg/kg intragastric
  Total moving distance: 5665.86 ± 1799.20 cm
[7]; mice
  ED50: 15 mg/kg
[7]
  improvement of MK-801 induced high activity (in words): significantly improve
[8]
  ED50: 300 mg/kg
[9]
  EPS at effective dosage (in words): did not cause EPS
  catalepsy/MK-801: 20.00
  catalepsy/apomorphine: 74.44
[4]; [13]
  LD50: > 2000 mg/kg
[12]
  affinities to D2, D3, 5-HT1A and 5-HT2A receptors (in words): relatively stronger affinities
  affinity compared to aripiprazole (in words): equivalent to aripiprazole
[10]
  ED50: 4.03 mg/kg
  improvement of apomorphine induced clambering symptoms (in words): effectively improve
[3]
  inhibition at 10 µM: 98.4%
